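In this assay, cells in 96-well plates receive the compound at five concentrations for 48 hours. Endpoints are linearly interpolated between the surrounding concentrations. TGI: total growth inhibition.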
Tests used:
Assay in all cases: NCI tumour cell line growth inhibition, 48 h
HCT-116 colon = system: HCT-116 colon
M14 melanoma = system: M14 melanoma
HCC-2998 colon = system: HCC-2998 colon
HT29 colon = system: HT29 colon
NCI-H23 lung = system: NCI-H23 lung
CCRF-CEM leukemia = system: CCRF-CEM leukemia
NCI-H460 lung = system: NCI-H460 lung
UACC-62 melanoma = system: UACC-62 melanoma
COLO 205 colon = system: COLO 205 colon
KM12 colon = system: KM12 colon
UACC-257 melanoma = system: UACC-257 melanoma
SR leukemia = system: SR leukemia
BT-549 breast = system: BT-549 breast
NCI/ADR-RES ovarian = system: NCI/ADR-RES ovarian
MDA-MB-231 breast = system: MDA-MB-231 breast

SMILES	TGI (HCT-116 colon) [µM]	TGI (M14 melanoma) [µM]	TGI (HCC-2998 colon) [µM]	TGI (HT29 colon) [µM]	TGI (NCI-H23 lung) [µM]	TGI (CCRF-CEM leukemia) [µM]	TGI (NCI-H460 lung) [µM]	TGI (UACC-62 melanoma) [µM]	TGI (COLO 205 colon) [µM]	TGI (KM12 colon) [µM]	TGI (UACC-257 melanoma) [µM]	TGI (SR leukemia) [µM]	TGI (BT-549 breast) [µM]	TGI (NCI/ADR-RES ovarian) [µM]	TGI (MDA-MB-231 breast) [µM]
CCC(=O)NCC1(c2c[nH]c3ccccc23)SCCS1	> 100	> 100	> 100	> 100	> 100	> 100	> 100	> 100	> 100	> 100	> 100	> 100	–	–	–
CSc1ccc2c(cc1=O)C(NC(=O)c1cc(O)c(OC(=O)O)c(O)c1)CCc1cc(O)c(O)c(O)c1-2 (centres undefined)	29.1	30.5	> 90	40.2	42.5	> 90	49.1	30.6	> 90	65.3	> 90	–	–	–	–
CCCN(CCC)C(=O)Cc1c2n(c3ccccc13)CCCc1ccccc1-2	26.3	26.4	25.9	26	25.7	37.2	29.3	23	29.1	25.2	27	24.8	–	–	–
COc1cc([C@@H]2c3cc4c(cc3[C@@H](NC(=O)c3ccc(C(C)=O)cc3)C3COC(=O)[C@@H]32)OCO4)cc(OC)c1O (some centres undefined)	5.03	31.1	7.91	6.34	1.41	> 100	1.53	2.1	19.5	5.68	32.2	–	–	–	–
CC(=O)C1CC2(c3ccccc3)C(=O)c3ccccc3N2O1 (centres undefined)	> 100	> 100	> 100	> 100	> 100	> 100	–	> 100	> 100	–	> 100	> 100	–	–	–
Cc1ccc(-c2n[nH]c(CC#N)n2)cc1	> 100	> 100	> 100	> 100	> 100	> 100	> 100	> 100	> 100	> 100	> 100	> 100	> 100	> 100	–
CC1(Br)C(=O)NC(=O)N([C@H]2C[C@H](O)[C@@H](CO)O2)C1N=[N+]=[N-] (some centres undefined)	> 100	> 100	> 100	> 100	> 100	> 100	> 100	> 100	> 100	> 100	> 100	> 100	–	–	–
O=[N+]([O-])/C(Cl)=C(\Sc1ccccc1)C(Cl)=C(Cl)Cl	0.278	0.345	3.84	1.8	1.87	0.667	3.22	1.98	0.608	3.21	0.994	0.734	–	0.551	0.628
CCOC(=O)NC(=O)c1cn(-c2ccc(CCOC(=O)CCCCCCCCC(=O)OCCc3ccc(-n4cc(C(=O)NC(=O)OCC)c(=O)[nH]c4=O)cc3)cc2)c(=O)[nH]c1=O	> 100	> 100	> 100	> 100	> 100	> 100	> 100	> 100	> 100	> 100	> 100	> 100	–	–	–
C/C(=N\O)C(CN(C)C)C(c1ccccc1)c1c(O)c2ccccc2oc1=O (centres undefined)	> 100	> 100	> 100	> 100	> 100	> 100	–	> 100	> 100	> 100	> 100	> 100	–	–	–
COC(=O)C(=O)C(C(=O)C(=O)Nc1ccc([N+](=O)[O-])cc1C#N)c1nc2ccc([N+](=O)[O-])cc2[nH]c1=O (centres undefined)	> 100	> 100	–	> 100	–	> 100	> 100	> 100	> 100	> 100	> 100	> 100	–	–	–
CCOP(=O)(C/C(=N/NC(C)(C)C)C(=O)Nc1nc2ccc(C)cc2s1)OCC	> 100	> 100	> 100	> 100	> 100	> 100	> 100	> 100	> 100	> 100	> 100	> 100	–	–	–
CCOC(=O)c1c(SCC#N)n(-c2ccccc2)c(=S)n(-c2ccccc2)c1=O	> 100	> 100	–	> 100	> 100	> 100	> 100	> 100	> 100	> 100	> 100	> 100	> 100	> 100	–
CN(C)CC1CCC(CN(C)C)C1=NO (centres undefined)	> 100	> 100	> 100	> 100	–	> 100	> 10	> 100	> 100	–	> 100	> 100	–	–	–
